Assay results: patent US20250360130A1, “METHODS OF TREATING INDOLENT SYSTEMIC MASTOCYTOSIS” (Telios Pharma Inc., priority 2024, published 2025)

Columns and labels:
[1] = system: human mast cells; experiment: Antigen-induced cytokine production in ISM-like and healthy mast cells; type: cell-based; details: two hours treatment, antigen four hours
Method: Human mast cells were derived from bone marrow CD34+ cells from six healthy donors for up to eight weeks by culturing CD34+ cells in StemSpan SFEM II (Stem Cell Technologies) supplemented with stem cell factor (SCF; 100 ng/mL; R&D System), IL-6 (R&D Systems), IL-3 (R&D Systems) and 1% penicillin/streptomycin (P/S; Gibco) for the first 10 days and in StemSpan SFEM II supplemented with SCF and IL-6 and 1% P/S for the remaining time in culture. […] Supernatant was collected and histamine levels were measured using a Histamine ELISA kit (Eagle Biosciences). […] Percent of activated mast cells was calculated as number of activated mast cells over the total number of mast cells.
Human mast cells were differentiated from bone marrow CD34+ cells from two healthy donors, cultured and sensitized in ISM-like and healthy mast cell conditions as set forth in Example 4, treated with Compound 128 for two hours and stimulated with antigen for four hours. Supernatant was collected and cytokine levels were measured using the BD Cytometric Bead Array (CBA) human soluble protein master buffer kit (Becton Dickinson) and BD CBA human soluble protein flex sets for IL-8, MCP-1, MIP-1a, IL-13 and IL-10 (Becton Dickinson). […]

[2] = system: serum tryptase; experiment: Serum tryptase in ISM patients; type: in vivo, human; details: 100 mg or 150 mg BID
Method: Also, blood samples were collected at the following timepoints: Cycle 1, Day 1: pre-dose (within 30 minutes prior to the morning dose), 0.5, 1.0, 2.0, 3.0, 4.0, and 6.0 hours (+15 minutes) post-morning dose. Cycle 1, Day 8: pre-dose (within 30 minutes prior to the morning dose) and 2 hours (+15 minutes) post-morning dose. Serum tryptase tests were conducted according to Example 14.
The measurement of serum tryptase can be followed to the procedure described in the literature (McMurray et al., Standardized indolent systemic mastocytosis evaluations across a health care system: implications for screening accuracy, Blood (2024) 144 (4): 408-419). Briefly, the procedure begins with proper patient preparation, avoiding recent physical activity or triggers that could cause mast cell activation. Venous blood samples, preferably drawn when the patient is not experiencing acute symptoms, are collected in serum separator tubes (SSTs) or plain red-top tubes, with approximately 5 mL of blood needed for analysis. After collection, the blood is allowed to clot at room temperature for 30-60 minutes before centrifugation for 10-15 minutes. The serum is then carefully separated from the cells and stored at 2-8° C. for short-term analysis or frozen at −20° C. or lower for long-term storage. […]

[3] = system: MRGPRX2; experiment: MRGPRX2-mediated cytokine production in ISM-like mast cells; type: cell-based, human
Method: Human mast cells were differentiated from bone marrow CD34+ cells from four healthy donors and were cultured in the presence of SCF (100 ng/mL) to mimic mast cells in ISM and treated with Compound 128 for two hours prior to stimulation. Mas-related G protein-coupled receptor (MRGPRX2) agonists, Compound 48/80 (C48/80; a product of N-methyl-p-methoxyphenethylamine with formaldehyde) or Substance P (SP) were used to activate the MRGPRX2 pathway. For pBTK test, cells were stimulated with C48/80 (10 μg/mL) for ten minutes at 37° C. and cells were stained. The median fluorescence intensity of phosphorylated BTK was measured. The fold change over unstimulated control for pBTK was calculated. For cytokine test, cells were stimulated with C48/80 (10 μg/mL) or SP (30 μM) for four hours at 37° C. Supernatant was collected and cytokine levels were measured using the BD Cytometric Bead Array (CBA) human soluble protein master buffer kit (Becton Dickinson) and BD CBA human soluble protein flex sets for IL-8, MCP-1, GM-CSF and IL-13 (Becton Dickinson). Cytokine levels were measured and normalized to percent of control, with 0% representing the level of the unstimulated control.

[4] = system: mast cells; experiment: Return of degranulation after Compound 128 exposure and washout (FIG. 18); type: cell-based, human; details: after Compound 128 exposure, flow cytometry
Text: FIGS. 18A-D show return of degranulation after Compound 128 exposure.

[5] = system: healthy mast cells and ISM mast cells; experiment: Potency across healthy mast cells and ISM mast cells (FIG. 16); type: cell-based, human; details: presence of SCF, NP-IgE sensitization, NP-BSA stimulation
Method: Healthy BM-MC donor 0166 and ISM WB-MC 1061-004 17 Jan. 2024 and 17 Oct. 2024. Experiments performed in the presence of SCF. Sensitization and Stimulation: NP-IgE (100 ng/ml) 18 hrs, NP-BSA (0.5 ng/ml) for 15 min at 37° C. (CD63, CD203, pBTK and histamine) or 4 min at RT (Calcium Flux).

**Q.** Which results are given for C=CC(=O)N1CCC(F)(CNc2ncnc(N)c2-c2ccc(Oc3ccccc3)cc2)CC1 [Compound 128, 1-(4-(((6-amino-5-(4-phenoxyphenyl)pyrimidin-4-yl)amino)methyl)-4-fluoropiperidin-1-yl)prop-2-en-1-one]?
**A.** IgE-mediated cytokine production (IL-8, MCP-1, MIP-1a, IL-13, IL-10) [1]: inhibited; reduction in serum tryptase levels [2]: effective in reducing serum tryptase levels; MRGPRX2-mediated cytokine production ([3]; 0.1 μM): partially inhibited; MRGPRX2-mediated cytokine production ([3]; 0.5 and 1 μM): inhibition of cytokine production was increased; C48/80-mediated cytokine production ([3]; Compound 48/80 agonist): partial inhibition; SP-mediated cytokine production ([3]; Substance P (SP) agonist): fully inhibited; time to restoration of degranulation after inhibition [4]: ≤ 24 h; potency in healthy versus ISM mast cells (CD63, CD203, pBTK, histamine, calcium flux) [5]: equipotent
